The values below come from patent publication US20200179302A1, “USE OF DIPHENOL IN PREPARATION OF MEDICINES FOR PREVENTION AND TREATMENT OF CEREBRAL ISCHEMIA” (XI'AN LIBANG PHARMACEUTICAL CO., LTD, priority 2016, published 2020).

For assay [1], the system named is rats with cerebral ischemic reperfusion injury. In words: Cerebral ischemic reperfusion (MCAO, suture method) rat model. It is filed as in vivo. Conditions: for Relative cerebral infarction volume(%): 40 mg/kg i.v. 30 min before and 12 h after reperfusion, TTC.
Assay [2] has as its system permanent cerebral ischemia model rats. As to the kind of experiment: Permanent cerebral ischemia (MCAO, suture method) rat model. Conditions: for Relative cerebral infarction volume(%): 40 mg/kg i.v. 30 min before insertion of thread and 12 h after embolism, TTC; for Fas average gray scale: gray scale inversely proportional to expression.
Setting [3] is: 40 mg/kg i.v., brain sections, TUNEL.

In the case of `CC(=O)Oc1c(C(C)C)cc(-c2cc(C(C)C)c(OC(C)=O)c(C(C)C)c2)cc1C(C)C` [Example 3, 3,3′,5,5′-tetraisopropylbiphenyl-4′-diacetate], the entries for the “Relative cerebral infarction volume(%)” value in assay [1] (24 h after reperfusion) and in assay [2] (24 h after embolism) were 23.22 ± 3.12 % and 27.92 ± 4.51 %, respectively.

Consider `CC(=O)Oc1c(C(C)C)cc(-c2cc(C(C)C)c(O)c(C(C)C)c2)cc1C(C)C` [Example 2, 4′-hydroxy-3,3′,5,5′-tetraisopropylbiphenyl-4-acetate], for which the “Relative cerebral infarction volume(%)” value in assay [1] (24 h after reperfusion) was determined as 18.71 ± 4.69 %; in assay [2] (24 h after embolism), 24.71 ± 3.76 %. Besides, the “Number of apoptotic cells” value in assay [1] (setting [3]) is on record as 19.14 ± 4.24; in assay [2] (setting [3]) it was 20.41 ± 5.02. Also, the “Fas average gray scale” value in assay [1] (40 mg/kg i.v., brain sections, immunohistochemistry, gray scale inversely proportional to expression) worked out at 162.47 ± 3.96; in assay [2] (40 mg/kg i.v., brain sections, immunohistochemistry), 158.28 ± 6.66.

In the case of `CC1=NN(c2ccccc2)C(=O)C1` [Edaravone injection, edaravone], the “Relative cerebral infarct volume (%)” value in assay [1] (edaravone 3 mg/kg, 24 h after reperfusion) was found to be 29.31 ± 3.95 %; in assay [2] (edaravone 3 mg/kg, 24 h after embolism) it was 31.29 ± 4.02 %. The “Fas average gray scale” value in assay [2] (edaravone 3 mg/kg, brain sections) came to 138.95 ± 5.50. In addition, in assay [2] (edaravone 3 mg/kg, brain tissue homogenate), the “TNF-α content” value is recorded as 5.53 ± 0.54 ng/mL.
